# Experimental data: patent US20230020092 (published 2023)
# {C6NH2} = C6 amino linker (-C6-NH2)
# Assay: fmoc spps; Rink amide resin (1.0 mmol/g); HATU/DIEA (cyclization)
# Conditions: conjugation step, scale 1 mmol, TFA salt
substance,measurement,value
"5'-GCT ATT ACC TTA ACC CAG-3' -C6-NH2 (all PMO monomers) (SEQ ID NO: 222) (GCTATTACCTTAACCCAG; all phosphorodiamidate morpholino (PMO), 3' {C6NH2})",final purity method not stated,>99%
